Laboratory results: US8852876B2, “Label free biosensors and cells” (Corning Incorporated, priority 2008, dated 2014)

Columns and labels:
[1] = biological target: MC receptors; experiment: DMR optical biosensor assay, agonist efficacy; type: cell-based, human; conditions: quiescent A431; n=3; read-out: Apparent EC50 (total responses of two P-DMR events)
[2] = test system: endogenous GPCRs in A431 cells; experiment: DMR optical biosensor profiling of GPCR agonists; type: cell-based, human; conditions: quiescent A431; first class = Gq-type, second = Gs-type, third = Gi-type, fourth = no significant DMR
[3] = test system: protease activated receptors PAR1 and PAR2; experiment: Fluo-3 Ca2+ mobilization assay with PAR agonists; type: cell-based, human
Method in brief: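 A431 cells (passage 3–5), serum-starved overnight, loaded with 4 μM Fluo-3 for 1 h in HBSS/20 mM HEPES pH 7.0 with 2.5 mM probenecid. PAR agonist added and calcium fluorescence recorded over 6 min at 6 s intervals, room temperature.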

[4] = biological target: T1, protease activated receptors PAR1 and PAR2 (Homo sapiens, UniProt P25116); type: cell-based
T1 construct: A431 cells which endogenously express PAR1 and PAR2; endogenous in cells; host or cells: A431
T1 sequence (P25116 22-425): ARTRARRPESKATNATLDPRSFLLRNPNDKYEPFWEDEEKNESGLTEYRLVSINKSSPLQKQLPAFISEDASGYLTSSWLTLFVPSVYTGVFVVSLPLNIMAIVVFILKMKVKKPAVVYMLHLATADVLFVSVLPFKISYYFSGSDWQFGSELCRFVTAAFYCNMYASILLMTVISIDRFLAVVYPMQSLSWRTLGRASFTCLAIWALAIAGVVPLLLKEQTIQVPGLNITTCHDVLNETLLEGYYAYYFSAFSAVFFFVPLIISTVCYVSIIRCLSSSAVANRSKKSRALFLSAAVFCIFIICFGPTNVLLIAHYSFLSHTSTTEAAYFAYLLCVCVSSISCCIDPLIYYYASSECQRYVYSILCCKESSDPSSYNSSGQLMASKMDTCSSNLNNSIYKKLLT
Method in brief: (§1)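 A431 cells at passage 3-5 grown in DMEM/10% FBS at 37° C, 5% CO2 to ~95% confluency (~2-4 days). Compounds and PAR agonists prepared in 1×HBSS to match the refractive index of the cell medium for dynamic mass redistribution (DMR) read-out.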

[5] = test system: protease activated receptors PAR1 and PAR2; type: cell-based, human
Method in brief: as §1

[6] = test system: actin filaments in A431 cells; experiment: Texas Red-phalloidin fluorescence imaging; type: cell-based, human; conditions: 100 nM trypsin or 40 unit/ml thrombin; ~95% confluency
Description: Cells were grown on Corning® Epic™ 96 well biosensor microplates, starved for overnight with serum-free DMEM medium, chased with either trypsin or thrombin for certain time, fixed with 4% paraformaldehyde, permeabilized in phosphate-buffered saline (PBS) containing 0.2% Triton, and blocked with 1% bovine serum albumin (BSA). Afterwards, cells were incubated with 0.5 μM Texas Red-labeled phalloidin for 1 h at room temperature, and washed. After final washes and mounting, cells were examined with a 40× objective, equipped in a Zeiss Axioplan fluorescence microscope.

[7] = biological target: T2, PAR1 receptor (Cricetulus griseus, UniProt A0A8C2QJ57); experiment: Endpoint wavelength-shift measurement, 384 well biosensor plate; type: cell-based, Chinese hamster; conditions: CHO cells; 5 minutes after addition
T2 construct: The PAR1 receptor is endogenously expressed in CHO cells; endogenous in cells; host or cells: CHO
T2 sequence (A0A8C2QJ57 22-428): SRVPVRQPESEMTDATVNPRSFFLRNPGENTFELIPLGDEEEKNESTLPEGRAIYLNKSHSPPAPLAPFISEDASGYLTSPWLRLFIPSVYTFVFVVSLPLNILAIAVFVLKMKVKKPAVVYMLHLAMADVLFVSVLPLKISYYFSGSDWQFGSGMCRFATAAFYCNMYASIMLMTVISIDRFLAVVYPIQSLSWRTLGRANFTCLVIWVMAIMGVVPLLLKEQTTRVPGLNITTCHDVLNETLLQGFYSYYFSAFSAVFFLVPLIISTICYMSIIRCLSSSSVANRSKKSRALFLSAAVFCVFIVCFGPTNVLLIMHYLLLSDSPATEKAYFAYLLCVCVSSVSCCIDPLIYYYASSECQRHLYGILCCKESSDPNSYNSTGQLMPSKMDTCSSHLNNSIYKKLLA
Description: The two time points were right before the compound addition (the baseline point), and 5 minutes after the compound addition (the measured point). The difference between two endpoints reflects the total amplitude of the P-DMR event mediated by thrombin—a PAR1 receptor agonist. Here a different cell line—CHO cells was used. The PAR1 receptor is endogenously expressed in CHO cells. The cells become partially quiescent by culturing the cells in the DMEM medium for 4 hours before the thrombin stimulation. In this example, a 384 well Coring Epic biosensor plate was used. Each well contains CHO cells with a confluency of ˜90%. Half of the wells were treated with thrombin at 40 unit/ml, whereas other half of the wells were treated with the buffer HBSS only. Since the agonist-induced activation of both B2 in A431 and PAR1 in CHO cells leads to Gq signaling, the significance of this assay results is that the Gq-type optical signature is at least universal in both cell lines. By using similar endpoint measurements, one is able to screen GPCR modulators against different endogenous targets in different cells.
The two time points were right before the compound addition (the baseline point), and 5 minutes after the compound addition (the measured point). The CHO cells were treated with thrombin at different doses. […]

[8] = biological target: T3, Bombesin receptor subtype 1 (BRS1) (Homo sapiens, UniProt P28336); experiment: Fluo-3 Ca2+ mobilization assay; type: cell-based; conditions: n=5
T3 construct: previously reported to endogenously express in A431 cells; endogenous in cells; host or cells: A431
T3 sequence (P28336 whole entry): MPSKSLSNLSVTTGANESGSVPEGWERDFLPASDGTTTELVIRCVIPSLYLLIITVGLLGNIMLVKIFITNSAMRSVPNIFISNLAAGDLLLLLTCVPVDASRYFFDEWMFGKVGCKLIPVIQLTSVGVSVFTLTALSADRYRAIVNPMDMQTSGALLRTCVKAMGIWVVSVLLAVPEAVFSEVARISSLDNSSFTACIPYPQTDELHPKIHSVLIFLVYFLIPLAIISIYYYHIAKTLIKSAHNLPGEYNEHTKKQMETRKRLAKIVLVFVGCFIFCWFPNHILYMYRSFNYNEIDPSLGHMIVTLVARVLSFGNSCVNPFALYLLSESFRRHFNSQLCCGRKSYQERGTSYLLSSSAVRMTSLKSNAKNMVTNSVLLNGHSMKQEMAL

[9] = test system: EGF-induced response of quiescent A431 cells; experiment: Effect of compound pretreatment on EGF-induced DMR response; type: cell-based, human; conditions: quiescent A431 cells; 32 nM EGF
Method in brief: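 A431 cells were made quiescent by ≥16 h culture in no or ~0.1% FBS medium. After two HBSS/20 mM HEPES pH 7.4 buffer additions ≥15 min apart, compound was added and then stimulus. Real-time dynamic mass redistribution was tracked by resonant waveguide biosensor with angular interrogation.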

[10] = test system: trypsin; experiment: BAEE hydrolysis assay; type: biochemical
[11] = test system: P2Y receptors; experiment: DMR optical biosensor assay, agonist efficacy; type: cell-based, human; conditions: quiescent A431; n=3; read-out: Apparent EC50 (P-DMR amplitude, Gq-type)
[12] = biological target: T4, β2 adrenergic receptor (Homo sapiens, UniProt P07550); experiment: DMR optical biosensor assay, agonist efficacy; type: cell-based; conditions: 10 μM pretreatment; 25 nM epinephrine
T4 construct: A431 endogenously expresses high numbers of β2 receptor; endogenous in cells; host or cells: A431

[13] = biological target: A2A receptor; conditions: read-out: Affinity; cited from earlier work
[14] = biological target: adenosine receptors; conditions: read-out: Apparent EC50 (slowly increased P-DMR, Gs-type)
[15] = biological target: T5, A3 receptor (Rattus norvegicus, UniProt P28647); conditions: read-out: Affinity; cited from earlier work
T5 sequence (P28647 1-320): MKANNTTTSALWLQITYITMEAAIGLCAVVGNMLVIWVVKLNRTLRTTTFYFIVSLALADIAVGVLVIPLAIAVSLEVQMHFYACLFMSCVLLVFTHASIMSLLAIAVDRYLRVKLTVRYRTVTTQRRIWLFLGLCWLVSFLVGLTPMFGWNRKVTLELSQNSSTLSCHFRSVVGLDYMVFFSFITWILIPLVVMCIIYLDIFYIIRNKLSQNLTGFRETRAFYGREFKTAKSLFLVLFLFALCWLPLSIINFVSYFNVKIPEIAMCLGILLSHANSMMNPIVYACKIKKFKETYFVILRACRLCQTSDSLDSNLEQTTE

With “α-melanocyte stimulating hormone [α-MSH]” the EC50 [1] was 9 ± 1.6 nM and the “Class of optical signature (DMR) induced by agonist” value (“Class of optical signature” for short) [2] was “third class of optical signatures”.
In the case of thrombin, the “Effect of preceding stimulation on thrombin-mediated [Ca2+]i elevation” value ([3]; 40 unit/ml thrombin twice) is reported as “totally blocked the [Ca^2+]i elevation mediated by 40 unit/ml thrombin”, the “Concentration required to induce a maximal response” value ([3]; [Ca2+]i) is reported as 40 unit/ml and the “Effect of preceding stimulation on trypsin-induced [Ca2+]i elevation” value ([3]; interval 6 min, 200 nM trypsin) is reported as “slightly suppressed the trypsin-induced [Ca^2+]i elevation”. The “EC50 of [Ca2+]i increase” value ([3]; quiescent A431, Fluo-3) was 6±1 unit/ml, the “Maximal [Ca2+]i elevation” value ([3]; quiescent A431, Fluo-3) was 48.2±3.5% and the EC50 ([3]; quiescent A431, Fluo-3, converted from unit/ml, read-out: EC50 of [Ca2+]i increase, equivalent) was 60 ± 10 nM. The “Apparent EC50 (P-DMR amplitude, Gq-type)” value ([4]; quiescent A431, n=3) was 9.6±2.0 unit/ml, the “Effect of preceding stimulation on trypsin-induced DMR signal” value ([5]; interval about 1 hour) was “significantly suppresses but not completely eliminates the trypsin-induced DMR signal” and the “Reorganization of actin filaments” value [6] was “triggered significant cytoskeletal reorganization after about 10 min”. For the same compound, the “Apparent EC50 (endpoint wavelength shift)” value [7] was 12.5 unit/ml and the “Class of optical signature” value [2] was “first class of optical signatures”.
With `CSCC[C@H](NC(=O)[C@H](CC(C)C)NC(=O)[C@H](Cc1cnc[nH]1)NC(=O)CNC(=O)[C@@H](NC(=O)[C@H](C)NC(=O)[C@H](Cc1c[nH]c2ccccc12)NC(=O)[C@H](CCC(N)=O)NC(=O)[C@H](CC(N)=O)NC(=O)CNC(=O)[C@H](CC(C)C)NC(=O)[C@H](CCCN=C(N)N)NC(=O)[C@H](CCC(N)=O)NC(=O)[C@@H]1CCC(=O)N1)C(C)C)C(N)=O` [bombesin] the “Maximum increase in intracellular Ca2+ level” value [8] was 20±5%.
For `CN([C@@H](Cc1ccc(OS(=O)(=O)c2cccc3cnccc23)cc1)C(=O)N1CCN(c2ccccc2)CC1)S(=O)(=O)c1cccc2cnccc12` [KN 62], the “Effect of pretreatment on 32 nM EGF-induced response” value [9] was “little effect on the response”, the “Effect of pretreatment on thrombin-mediated DMR signal” value ([4]; 40 unit/ml thrombin, modulators 10 μM) was “slightly suppressed the thrombin-mediated DMR signal” and the “Effect of pretreatment on trypsin-mediated DMR signal” value ([5]; 100 or 200 nM trypsin, modulators 10 μM) was “almost completely abolished the trypsin-mediated DMR signal”. The “Effect on trypsin activity” value [10] was “no any obvious effect on the trypsin activity”.
With `Nc1ncnc2c1ncn2[C@@H]1O[C@H](COP(=O)(O)OP(=O)(O)OP(=O)(O)O)[C@@H](O)[C@H]1O` [ATP] the EC50 [11] was 2200 ± 600 nM and the “Class of optical signature” value [2] was “first class of optical signatures”.
With NKH447 the “Effect of pretreatment on epinephrine-mediated DMR response” value [12] was “completely abolished the DMR responses mediated by epinephrine” and the “Class of optical signature” value [2] was “an optical signature that is similar to those induced by either β2 or A2 agonists”.
For `CCNC(=O)[C@H]1O[C@@H](n2cnc3c(N)ncnc32)[C@H](O)[C@@H]1O` [NECA], the Ki [13] is listed as […], the EC50 [14] is listed as 21.5 ± 1.2 nM and the “Class of optical signature” value [2] is listed as “second class of optical signatures”.
In the case of `NCCNC(=O)Cc1ccc(NC(=O)Cc2ccc(Nc3ncnc4c3ncn4[C@@H]3O[C@H](CO)[C@@H](O)[C@H]3O)cc2)cc1` [ADAC, adenosine amine cogener], the Ki [15] is given as 285 nM.
